For one assay, the target named is MST1 (Homo sapiens (Human), UniProt Q13043). Description: MST1 biochemical LanthaScreen Eu Kinase Binding Assay. Here is the method: (§1) MST1 and MST2 biochemical LanthaScreen Eu Kinase Binding Assay was based on the binding and displacement of kinase tracer to the kinase of interest. Compounds in 1000×DMSO stock solution was dispensed using automated dispensing system (Labcyte) to 384 well Corning Microplate at 15 nL, 5 uL of Kinase buffer A was added to each well. Plates were shaken and incubated for 1 min to ensure well dissolution of compounds.

A further assay has as its target MST2 (Homo sapiens (Human), UniProt Q13188). Description: MST2 biochemical LanthaScreen Eu Kinase Binding Assay. Here is the method:
as §1
(In general: Time-resolved FRET reads energy transfer from a long-lived donor to a nearby acceptor.)

Setting [1] is: read-out: Kinase Binding assay-MST1 IC50.
Setting [2] is: read-out: Kinase Binding assay-MST2 IC50.

Like-named read-outs stand apart in the source and are kept apart here.

As a reminder, the IC50 is the concentration needed to halve the response being measured.

MST2, sequence (Q13188 whole entry): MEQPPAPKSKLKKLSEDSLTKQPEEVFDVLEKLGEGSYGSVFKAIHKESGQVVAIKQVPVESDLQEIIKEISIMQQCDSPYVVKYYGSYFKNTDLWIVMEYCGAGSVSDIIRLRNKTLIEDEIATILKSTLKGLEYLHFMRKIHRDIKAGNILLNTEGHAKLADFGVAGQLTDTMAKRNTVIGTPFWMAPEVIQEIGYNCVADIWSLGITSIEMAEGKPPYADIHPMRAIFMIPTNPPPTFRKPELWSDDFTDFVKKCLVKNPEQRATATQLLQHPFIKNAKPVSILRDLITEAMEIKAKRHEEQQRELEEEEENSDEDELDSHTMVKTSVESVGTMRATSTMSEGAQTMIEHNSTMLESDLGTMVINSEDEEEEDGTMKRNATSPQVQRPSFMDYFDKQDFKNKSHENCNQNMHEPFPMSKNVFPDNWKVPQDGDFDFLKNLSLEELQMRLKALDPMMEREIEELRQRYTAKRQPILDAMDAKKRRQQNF
MST1, sequence (Q13043 whole entry): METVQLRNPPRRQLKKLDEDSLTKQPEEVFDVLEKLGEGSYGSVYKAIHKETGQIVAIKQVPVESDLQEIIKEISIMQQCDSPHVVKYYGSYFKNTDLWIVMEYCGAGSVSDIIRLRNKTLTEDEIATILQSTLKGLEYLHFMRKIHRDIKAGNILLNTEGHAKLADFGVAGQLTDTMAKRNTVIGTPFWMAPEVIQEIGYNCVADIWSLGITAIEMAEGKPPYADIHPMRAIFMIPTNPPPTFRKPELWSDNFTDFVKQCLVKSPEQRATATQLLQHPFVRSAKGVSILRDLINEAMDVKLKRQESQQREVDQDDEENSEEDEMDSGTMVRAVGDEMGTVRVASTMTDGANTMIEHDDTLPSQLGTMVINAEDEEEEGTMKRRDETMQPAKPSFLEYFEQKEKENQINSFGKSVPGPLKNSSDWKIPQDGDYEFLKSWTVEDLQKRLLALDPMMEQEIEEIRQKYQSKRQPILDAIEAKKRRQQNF

With `CCOc1cc2ncc(C#N)c(Nc3cc(C)c(OCc4ncccc4C)cc3C)c2cc1NC(=O)/C=C/CN(C)C` [Example 94], the IC50 on MST1 (setting [1]) and at MST2 (setting [2]) was < 0.1 µM each time.

In the case of `CCOc1cc2ncc(C#N)c(Nc3ccc(OCc4ncccc4C#N)c(Cl)c3)c2cc1NC(=O)CCCN(C)C` [Example 19], the IC50 at MST1 (setting [1]) and at MST2 (setting [2]) was < 0.1 µM in each case.

In the case of `CCOc1cc2ncc(C#N)c(Nc3ccc(OCc4cc(C5CC5)on4)c(Cl)c3)c2cc1NC(=O)CCCN(C)C` [Example 40], the IC50 on MST1 (setting [1]) and at MST2 was 0.1 to 1 µM in each case.

Take `CCOc1cc2ncc(C#N)c(Nc3ccc(CCc4ccccn4)c(Cl)c3)c2cc1NC(=O)CCCN(C)C` [Example 107, N-(4-(3-chloro-4-(2-(pyridin-2-yl)ethyl)phenylamino)-3-cyano-7-ethoxyquinolin-6-yl)-4-(dimethylamino)butanamide]: the IC50 at MST1 (setting [1]) and on MST2 (setting [2]) was 0.1 to 1 µM each time.

For `CCOc1cc2ncc(C#N)c(Nc3ccc(OCc4ncccc4C)c(F)c3)c2cc1NC(=O)CCCN(C)C` [Example 22], the IC50 at MST1 (setting [1]) and at MST2 (setting [2]) was < 0.1 µM in each case.

As for `CCOc1cc2ncc(C#N)c(Nc3ccc(OCc4cc(Cl)ccn4)c(Cl)c3)c2cc1NC(=O)CCCN(C)C` [Example 2], the IC50 at MST1 (setting [1]) and at MST2 (setting [2]) was < 0.1 µM throughout.

`CCOc1cc2ncc(C#N)c(Nc3ccc(OCc4ncccc4C(F)(F)F)cc3Cl)c2cc1NC(=O)CCCN(C)C` [Example 81]: the IC50 on MST1 (setting [1]) and on MST2 (setting [2]) was < 0.1 µM throughout.

For `CCOc1cc2ncc(C#N)c(Nc3cccc(Cl)c3)c2cc1NC(C)=O` [Example 127], the IC50 at MST1 (setting [1]) and at MST2 (setting [2]) was < 0.1 µM in each case.

For `CCOc1cc2ncc(C#N)c(Nc3ccc(OCc4cccc(OC)n4)c(Cl)c3)c2cc1NC(=O)CCCN(C)C` [Example 6], the IC50 at MST1 and at MST2 was 0.1 to 1 µM throughout.

Regarding `CCOc1cc2ncc(C#N)c(Nc3ccc(OCc4ncccc4C(F)(F)F)c(Cl)c3)c2cc1NC(=O)CCCN(C)C` [Example 17], the IC50 at MST1 (setting [1]) and at MST2 (setting [2]) was < 0.1 µM throughout.

For `CCOc1cc2ncc(C#N)c(Nc3cc(Cl)c(OCc4ncccc4C)c(Cl)c3)c2cc1NC(=O)CCCN(C)C` [Example 26], the IC50 at MST1 (setting [1]) and at MST2 (setting [2]) was < 0.1 µM throughout.

With `CCOc1cc2ncc(C#N)c(Nc3ccc(OCc4ncccc4C)c(C)c3C)c2cc1NC(=O)CCCN(C)C` [Example 33], the IC50 on MST1 (setting [1]) and at MST2 (setting [2]) was < 0.1 µM in each case.

In the case of `CCOc1cc2ncc(C#N)c(Nc3ccc(O)cc3C)c2cc1NC(=O)CCCN(C)C` [Example 139], the IC50 lay within 0.1 to 1 µM on MST1 (setting [1]) and 1 to 10 µM at MST2.

On to `CCOc1cc2ncc(C#N)c(Nc3ccc(OCc4ncccc4C)c(OC(F)(F)F)c3)c2cc1NC(=O)CCCN(C)C` [Example 80], for which the IC50 at MST1 (setting [1]) and on MST2 was 0.1 to 1 µM throughout.

As for `CCOc1cc2ncc(C#N)c(Nc3cc(Cl)c(OCc4ncccc4C)cc3C)c2cc1NC(=O)CCCN(C)C` [Example 78], the IC50 on MST1 (setting [1]) and on MST2 (setting [2]) was < 0.1 µM throughout.

Turning to `CCOc1cc2ncc(C#N)c(Nc3ccc(OCc4ncccc4C)c(C)c3)c2cc1NC(=O)CCCN(C)C` [Example 21], the IC50 is < 0.1 µM on MST1 (setting [1]) and 0.1 to 1 µM on MST2.

In the case of `CCOc1cc2ncc(C#N)c(Nc3ccc(OCc4cccc(F)n4)c(Cl)c3)c2cc1NC(=O)CCCN(C)C` [Example 4], the IC50 on MST1 (setting [1]) and on MST2 (setting [2]) was < 0.1 µM each time.

With `CCOc1cc2ncc(C#N)c(Nc3ccc(OCc4cccc(C)n4)c(Cl)c3)c2cc1NC(=O)CCCN(C)C` [Example 12], the IC50 at MST1 (setting [1]) and on MST2 (setting [2]) was < 0.1 µM each time.

Turning to `CCOc1cc2ncc(C#N)c(Nc3ccc(OCc4ncccc4C)c(Br)c3)c2cc1NC(=O)CCCN(C)C` [Example 24], the IC50 at MST1 (setting [1]) and on MST2 (setting [2]) was < 0.1 µM throughout.

As for `CCOc1cc2ncc(C#N)c(Nc3ccc(OCc4ncccc4C)cc3C)c2cc1NC(=O)CCCN(C)C` [Example 31], the IC50 at MST1 (setting [1]) and at MST2 (setting [2]) was < 0.1 µM throughout.

For `Cc1cccnc1COc1ccc(Nc2c(C#N)cnc3ccc(NC(=O)CCCN(C)C)cc23)c(Cl)c1` [Example 144, N-(4-(2-chloro-4-((3-methylpyridin-2-yl)methoxy)phenylamino)-3-cyanoquinolin-6-yl)-4-(dimethylamino)butanamide], the IC50 on MST1 and on MST2 was 0.1 to 1 µM each time.

For the molecule `CCOc1cc2ncc(C#N)c(Nc3ccc(OCc4ccn(C)n4)c(Cl)c3)c2cc1NC(=O)CCCN(C)C` [Example 67], the IC50 at MST1 (setting [1]) and at MST2 was 0.1 to 1 µM each time.

As for `CCOc1cc2ncc(C#N)c(Nc3ccc(OCc4ncccc4C)cc3F)c2cc1NC(=O)CCCN(C)C` [Example 23], the IC50 at MST1 (setting [1]) and at MST2 (setting [2]) was < 0.1 µM each time.

As to `CCOc1cc2ncc(C#N)c(Nc3cc(C)c(OCc4ncccc4C)c(C)c3)c2cc1NC(=O)CCCN(C)C` [Example 32], the figures for the IC50 at MST1 (setting [1]) and on MST2 were < 0.1 µM and 0.1 to 1 µM, respectively.

With `CCOc1cc2ncc(C#N)c(Nc3ccc(OCc4cccc(Br)n4)c(Cl)c3)c2cc1NC(=O)CCCN(C)C` [Example 3], the IC50 at MST1 (setting [1]) and on MST2 (setting [2]) was < 0.1 µM each time.

Take `CCOc1cc2ncc(C#N)c(Nc3ccc(OCc4ncccc4Cl)c(Cl)c3)c2cc1NC(=O)CCCN(C)C` [Example 35]: the IC50 on MST1 (setting [1]) and at MST2 (setting [2]) was < 0.1 µM each time.

`CCOc1cc2ncc(C#N)c(Nc3ccc(OCc4ccc(F)cn4)c(Cl)c3)c2cc1NC(=O)CCCN(C)C` [Example 13]: the IC50 on MST1 and at MST2 was 0.1 to 1 µM throughout.

Turning to `CCOc1cc2ncc(C#N)c(Nc3ccc(NC(=O)c4ncccc4C)c(Cl)c3)c2cc1NC(=O)CCCN(C)C` [Example 108, N-(2-chloro-4-(3-cyano-6-(4-(dimethylamino)butanamido)-7-ethoxyquinolin-4-ylamino)phenyl)-3-methylpicolinamide], the IC50 at MST1 and on MST2 was 0.1 to 1 µM each time.

For `CCOc1cc2ncc(C#N)c(Nc3ccc(OCc4ncccc4Br)c(Cl)c3)c2cc1NC(=O)CCCN(C)C` [Example 15], the IC50 on MST1 (setting [1]) and on MST2 (setting [2]) was < 0.1 µM each time.

For `Cc1cccnc1COc1ccc(Nc2ccnc3ccc(NC(=O)CCCN(C)C)cc23)c(Cl)c1` [Example 147, N-(4-(2-chloro-4-((3-methylpyridin-2-yl)methoxy)phenylamino)quinolin-6-yl)-4-(dimethylamino)butanamide], the IC50 at MST1 (setting [1]) and on MST2 was 1 to 10 µM each time.

As for `CCOc1cc2ncc(C#N)c(Nc3ccc(OCc4ccccn4)c(Cl)c3)c2cc1NC(=O)CCCN1CCOCC1` [Example 99], the IC50 on MST1 (setting [1]) and at MST2 was 0.1 to 1 µM throughout.

Turning to `CCOc1cc2ncc(C#N)c(Nc3ccc(OCc4ccccn4)c(Cl)c3)c2cc1NC(=O)CCCN1CCCCC1` [Example 97], the IC50 is < 0.1 µM on MST1 (setting [1]) and 0.1 to 1 µM at MST2.

Consider `CCOc1cc2ncc(C#N)c(Nc3ccc(OCc4ncccc4C)cc3C)c2cc1NC(=O)/C=C/CN(C)C` [Example 93], for which the IC50 at MST1 (setting [1]) and on MST2 (setting [2]) was < 0.1 µM in each case.

As for `CCOc1cc2ncc(C#N)c(Nc3cc(Cl)c(OCc4ncccc4C)cc3Br)c2cc1NC(=O)CCCN(C)C` [Example 79], the IC50 on MST1 (setting [1]) and at MST2 (setting [2]) was < 0.1 µM each time.

Take `CCOc1cc2ncc(C#N)c(Nc3ccc(OCc4ccccn4)c(Cl)c3)c2cc1NC(C)=O` [Example 85]: the values for the IC50 at MST1 (setting [1]) and at MST2 were < 0.1 µM and 1 to 10 µM, respectively.

As to `CCOc1cc2ncc(C#N)c(Nc3ccc(OCc4cn5cccc(C)c5n4)c(Cl)c3)c2cc1NC(=O)CCCN(C)C` [Example 41], the IC50 on MST1 (setting [1]) and at MST2 (setting [2]) was < 0.1 µM throughout.

With `CCOc1cc2ncc(C#N)c(Nc3ccc(OCc4nc(Br)ccc4C)cc3Cl)c2cc1NC(=O)CCCN(C)C` [Example 77], the IC50 at MST1 (setting [1]) and at MST2 (setting [2]) was < 0.1 µM throughout.

As to `CCOc1cc2ncc(C#N)c(Nc3ccc(OCc4ccccn4)c(Cl)c3)c2cc1NC(=O)CCCOC` [Example 102], the IC50 at MST1 (setting [1]) and on MST2 was 0.1 to 1 µM in each case.

Regarding `CCOc1cc2ncc(C#N)c(Nc3ccc(OCc4ncccc4C)c(OC)c3)c2cc1NC(=O)CCCN(C)C` [Example 28], the IC50 at MST1 (setting [1]) and on MST2 (setting [2]) was < 0.1 µM throughout.

`CCOc1cc2ncc(C#N)c(Nc3ccc(OCc4cc(C)ccn4)c(Cl)c3)c2cc1NC(=O)CCCN(C)C` [Example 10]: the IC50 at MST1 (setting [1]) was < 0.1 µM; on MST2, 0.1 to 1 µM.

On to `CCOc1cc2ncc(C#N)c(Nc3ccc(OCc4cc(C#N)ccn4)c(Cl)c3)c2cc1NC(=O)CCCN(C)C` [Example 36], for which the IC50 on MST1 (setting [1]) and on MST2 was 0.1 to 1 µM throughout.

On to `CCOc1cc2ncc(C#N)c(Nc3ccc(OCc4ncccc4C)cc3)c2cc1NC(=O)CCCN(C)C` [Example 20], for which the IC50 on MST1 (setting [1]) is < 0.1 µM; on MST2 it was 0.1 to 1 µM.

For `CCOc1cc2ncc(C#N)c(Nc3ccc(OCc4ccccn4)c(Cl)c3)c2cc1NC(=O)CCCN1CCCC1` [Example 95, N-(4-(3-chloro-4-(pyridin-2-ylmethoxy)phenylamino)-3-cyano-7-ethoxyquinolin-6-yl)-4-(pyrrolidin-1-yl)butanamide], the figures for the IC50 on MST1 (setting [1]) and on MST2 were < 0.1 µM and 0.1 to 1 µM, respectively.

`CCOc1cc2ncc(C#N)c(Nc3ccc(OCc4ncccc4C4CC4)c(Cl)c3)c2cc1NC(=O)CCCN(C)C` [Example 44]: the concentration for half-maximal inhibition (IC50) at MST1 (setting [1]) and at MST2 was 0.1 to 1 µM in each case.

With `CCOc1cc2ncc(C#N)c(Nc3ccc(OCc4ncccc4CC)c(Cl)c3)c2cc1NC(=O)CCCN(C)C` [Example 45], the IC50 on MST1 (setting [1]) and at MST2 (setting [2]) was < 0.1 µM in each case.

On to `CCOc1cc2ncc(C#N)c(Nc3ccc(OCc4nc5ccccc5nc4C)c(Cl)c3)c2cc1NC(=O)CCCN(C)C` [Example 42], for which the values for the IC50 on MST1 (setting [1]) and on MST2 were < 0.1 µM and 0.1 to 1 µM, respectively.

As for `CCOc1cc2ncc(C#N)c(Nc3ccc(OCc4nc(Br)ccc4C)c(Cl)c3)c2cc1NC(=O)CCCN(C)C` [Example 76], the IC50 at MST1 (setting [1]) and on MST2 (setting [2]) was < 0.1 µM each time.

The record behind these values is patent US10774068B2, “Composition and methods for inhibiting mammalian sterile 20-like kinase 1” (The Scripps Research Institute, priority 2015, dated 2020).
